According to PMC7465636 (Biomolecules, 2020):
Like-named read-outs stand apart in the source and are kept apart here.

What was measured:
[1] = tested on: P. falciparum PfSR25- (knockout strain for the PfSR25 receptor); assay: In vitro growth assay with flow cytometry, PfSR25- knockout strain; assay type: cell-based, Plasmodium falciparum; details: for IC50: 72 h; for IC50 for the knockout strain compared with the 3D7 strain: PfSR25- versus 3D7
Procedure: (§1) Erythrocytes infected with P. falciparum 3D7 and the knockout strain for the PfSR25 receptor (PfSR25-) were kept in 175 cm^2 culture bottles (Greiner Bio-One) containing RPMI 1640 with 0.5% NaHCO3, 0.04% sulfate gentamicin, 0.05% hypoxanthine and supplemented with 0.5% AlbuMAX I (Gibco). The culture bottles were maintained at 37 °C and an atmosphere with 90% N2, 5% O2 and 5% CO2 Parasitemia was determined from a blood smear stained with Panotic Rapid (Laborclin).
(§2) Red blood cells infected with P. falciparum (iRBC) asynchronously with 0.3% initial parasitemia and 1% hematocrit were incubated with different concentrations of compounds ranging from 0.0488 µM to 50 µM, for 72 h at 37 °C under mixture of gases. The control group was treated with solvent Dimethyl Sulfoxide (DMSO) (v/v); with the highest concentration of solvent bring 0.25%.
(§3) Parasitemia was determined from the dot plots (side scatter versus fluorescence) of at least […] acquired on an Accuri C6 flow cytometer (Becton Dickinson). Initial gating was carried out with unstained, uninfected erythrocytes to account for erythrocyte autofluorescence.
(§4) After 72 h, iRBCs were stained with nucleic acid marker SYBR Green I (1X) (Invitrogen) and mitochondria marker based on membrane potential MitoTracker Deep Red (50 nM) (Invitrogen), and were incubated for 20 min. at 37 °C. The final parasitemia was obtained by flow cytometer using a BD Accuri C6 Flow Cytometer, collecting 10^³ cells. Dot plots using FlowJo V10.6.2 software determined Parasitemia. At least three independent experiments were performed in triplicate to calculate the IC50 values for each drug.
We also assessed the role of PfSR25 in terms of its susceptibility to compounds with a better antimalarial activity (9, 13, 19, 21, 22, 24 and 29) and compounds with less activity (21) based on the results obtained with the 3D7 screening. Thus, the tests were carried out like that described above and are represented in Figure 5. However, we used the knockout strain for the receptor-like PfSR25- for the tests.

P. falciparum 3D7 = assay: In vitro growth assay with flow cytometry, P. falciparum 3D7; assay type: cell-based, Plasmodium falciparum
Procedure: as §1, §2, §3, §4
In order to identify potential antimalarials present in the library of compounds derived from the 1H-1,2,3-triazoles and 2H-1,2,3-triazoles, we used a culture of P. falciparum (3D7) to perform the screening tests of the compounds. To assess parasitemia at the end of the parasites incubation with the compounds for 72 h, we used a double-label: (1) SYBR Green I to mark DNA and (2) MitoTracker Deep Red as a mitochondria marker. The latter being dependent on the membrane potential, we ensured that only the marking and selection of viable parasites occurred.

HEK293 cells = assay type: cell-based, human; details: 72 h; for survival of HEK293 cells (MTT): 0.0488–50 µM; for toxicity in HEK 293 cells (MTT): at the tested concentrations (0.0488–50 µM)
Procedure: Human Embryonic Kidney Cells (HEK293) were kept in 75 cm^2 culture bottles (Greiner Bio-One) at 37 °C, 5% CO2 containing Dulbecco’s Minimal Essential Medium (DMEM), added with 10% fetal bovine serum, 1% Streptomycin and Penicillin and 3.7 g/L of NaHCO3 (Sigma). Cell passages were performed with trypsin-EDTA (Invitrocell). The number of cells was monitored by counting in a Neubauer chamber.
To evaluate the toxicity of the triazole compounds in mammalian cells, Human Embryonic Kidney cells (HEK293). Cells were plated in flat-bottom 96-well plates at a density of 10^4 cells per well and incubated for 24 h in 150 µL media at 37 °C, 5% CO2. Cells were then treated with different concentrations of each compound, ranging from 0.0488 µM to 50 µM in 200 µL DMEM for 72 h at 37 °C and 5% CO2. Cells treated with DMSO (v/v), with the highest concentration of solvent at 0.25% were used as control. After incubation, 40 µL of MTT reagent (solution 5 mg/mL in PBS) was added to each well, and cells were incubated for further 3 h at 37 °C and 5%CO2 [35]. The media was removed, and 100 µL of DMSO was added in each well. The plates were agitated in a shaker for 10 min to dissolve precipitates. The absorbance was read at 570 nm in a FlexStation 3 (Molecular Devices). Three experiments were performed independently in triplicates.

[2] = assay type: physicochemical; details: in our experimental conditions
Excerpt: The methods used to prepare the 1-aryl-1H-1,2,3-triazoles and 2-aryl-2H-1,2,3-triazoles (54 examples) involved classical chemical transformations, and all evaluated compounds were from the group’s molecular bank and were present in other published works. […] This information can be important for future studies.

[3] = Plasmodium falciparum, 3D7, 72 h, P. falciparum 3D7, 72 h, 0.0488–50 µM, ± standard error of the mean, read-out: IC50
[4] = P. falciparum 3D7, 72 h, 0.0488–50 µM, ± standard error of the mean, read-out: IC50

Row | Compound | IC50 (P. falciparum 3D7; [3]) | IC50 (P. falciparum 3D7; [4]) | other results
1 | C[C@@H]1CC[C@H]2[C@@H](C)C(=O)O[C@@H]3O[C@@]4(C)CC[C@@H]1[C@]32OO4 [Artemisinin, reference compound] | – | – | IC50 ([1]; Plasmodium falciparum, read-out: IC50 (dose-response curve, Figure 3B)): 0.0058 ± 0.00172 µM; IC50 (P. falciparum 3D7; Plasmodium falciparum, 3D7, 72 h, 3D7, positive control […] to 160 nM, 72 h, unit inferred, read-out: IC50 (dose-response curve, Figure 3A)): 0.0062 ± 0.00073 µM
2 | CCOCc1cn(-c2ccc(Cl)cc2)nn1 [Compound 1] | 11.7 ± 0.74 µM | – | –
3 | CCOCc1cn(-c2cc(Cl)cc(Cl)c2)nn1 [Compound 2] | 15.4 ± 2.26 µM | – | –
4 | CCCOCc1cn(-c2cc(Cl)cc(Cl)c2)nn1 [Compound 3] | 14.5 ± 1.71 µM | – | –
5 | CCCOCc1cn(-c2cc(Cl)ccc2Cl)nn1 [Compound 4] | 20.4 ± 0.73 µM | – | –
6 | CCCCOCc1cn(-c2cc(Cl)cc(Cl)c2)nn1 [Compound 5] | 23.9 ± 2.01 µM | – | –
7 | CCOC(=O)c1cn(-c2ccccc2)nn1 [Compound 6] | 12.8 ± 3.02 µM | – | –
8 | O=C(OCc1cn(-c2ccccc2)nn1)c1ccccc1 [Compound 7] | 22.9 ± 0.34 µM | – | –
9 | O=C(OCc1cnn(-c2ccccc2)n1)c1ccccc1 [Compound 8] | > 25 µM | 27.5 ± 1.26 µM | –
10 | CCCCCCCCCC(=O)OCc1cn(-c2ccc(Cl)cc2)nn1 [Compound 9] | – | – | survival of HEK293 cells (MTT) (HEK293 cells): above 80%; toxicity in HEK 293 cells (MTT) (HEK293 cells): no toxicity; IC50 for the knockout strain compared with the 3D7 strain [1]: lower IC50 values for the knockout strain; IC50 ([1]; Plasmodium falciparum): 1.55 ± 0.55 µM
11 | CCCCCCCCCC(=O)OCc1cn(-c2cc(Cl)cc(Cl)c2)nn1 [Compound 10] | 14.6 ± 0.29 µM | – | –
12 | CCCCCCCCCC(=O)OCc1cn(-c2ccc(OC)cc2)nn1 [Compound 11] | 23.5 ± 2.77 µM | – | –
13 | COc1ccc(-n2cc(COC(=O)c3ccccc3)nn2)cc1 [Compound 12] | 13.5 ± 1.12 µM | – | –
14 | ON=Cc1cn(-c2ccc(Cl)cc2)nn1 [Compound 13] | < 10 µM | 6.67 ± 1.86 µM | survival of HEK293 cells (MTT) (HEK293 cells): above 80%; toxicity in HEK 293 cells (MTT) (HEK293 cells): no toxicity; IC50 for the knockout strain compared with the 3D7 strain [1]: lower IC50 values for the knockout strain; IC50 ([1]; Plasmodium falciparum): 0.89 ± 0.39 µM
15 | O/N=C/c1cn(-c2cc(Cl)ccc2Cl)nn1 [Compound 14] | 21.5 ± 0.84 µM | – | –
16 | C(=N\Nc1ccccc1)/c1cnn(-c2ccccc2)n1 [Compound 15] | 18.1 ± 1.92 µM | – | –
17 | Clc1ccc(N/N=C/c2cnn(-c3ccccc3)n2)cc1 [Compound 16] | < 10 µM | 9.29 ± 1.01 µM | –

Row | Compound | IC50 (P. falciparum 3D7; [3]) | IC50 (P. falciparum 3D7; [4]) | other results
18 | Fc1ccc(N/N=C/c2cnn(-c3ccccc3)n2)cc1 [Compound 17] | 14.7 ± 1.28 µM | – | –
19 | Clc1ccc(N/N=C/c2cn(-c3ccc(Cl)cc3)nn2)cc1 [Compound 18] | 17.6 ± 1.07 µM | – | –
20 | Fc1ccc(N/N=C/c2cn(-c3ccc(Cl)cc3)nn2)cc1 [Compound 19] | < 10 µM | 8.45 ± 2.25 µM | survival of HEK293 cells (MTT) (HEK293 cells): above 80%; toxicity in HEK 293 cells (MTT) (HEK293 cells): no toxicity; IC50 for the knockout strain compared with the 3D7 strain [1]: lower IC50 values for the knockout strain; IC50 ([1]; Plasmodium falciparum): 2.24 ± 0.77 µM
21 | Clc1ccc(-n2cc(/C=N/Nc3cc(Cl)ccc3Cl)nn2)cc1 [Compound 20, (E)-1-(4-chlorophenyl)-4-((2-(2,5-dichlorophenyl)hydrazono)methyl)-1H-1,2,3-triazole] | 13.6 ± 1.2 µM | – | melting point: 181 to 182 °C
22 | Clc1cc(Cl)cc(-n2cc(/C=N/Nc3ccc(Br)cc3)nn2)c1 [Compound 21, (E)-4-((2-(4-bromophenyl)hydrazono)methyl)-1-(3,5-dichlorophenyl)-1H-1,2,3-triazole] | > 25 µM | 29.3 ± 0.34 µM | IC50 for the knockout strain compared with the 3D7 strain [1]: lower IC50 values for the knockout strain; IC50 ([1]; Plasmodium falciparum): 12.4 ± 2.51 µM
23 | Cc1ccc(C)c(N/N=C/c2cn(-c3cc(Cl)cc(Cl)c3)nn2)c1 [Compound 23] | < 10 µM | 9.23 ± 1.68 µM | –
24 | COc1ccc(-n2cc(/C=N/Nc3ccccc3)nn2)cc1 [Compound 24] | – | – | survival of HEK293 cells (MTT) (HEK293 cells): above 80%; toxicity in HEK 293 cells (MTT) (HEK293 cells): no toxicity; IC50 for the knockout strain compared with the 3D7 strain [1]: lower IC50 values for the knockout strain; IC50 ([1]; Plasmodium falciparum): 0.99 ± 0.25 µM
25 | COc1ccc(-n2cc(/C=N/Nc3ccc(Cl)cc3)nn2)cc1 [Compound 25, (E)-4-((2-(4-chlorophenyl)hydrazono)methyl)-1-(4-methoxyphenyl)-1H-1,2,3-triazole] | < 10 µM | 9 ± 3.27 µM | –
26 | Clc1ccc(Cl)c(N/N=C/c2cn(-c3cc(Cl)ccc3Cl)nn2)c1 [Compound 26, (E)-1-(2,5-dichlorophenyl)-4-((2-(2,5-dichlorophenyl)hydrazono)methyl)-1H-1,2,3-triazole] | < 10 µM | 9.4 ± 2.87 µM | melting point: 200 to 201 °C
27 | O=C(N/N=C/c1cn(-c2ccccc2)nn1)c1ccncc1 [Compound 27] | 23.1 ± 2.58 µM | – | –
28 | O=C(N/N=C/c1cn(-c2ccc(Cl)cc2)nn1)c1ccncc1 [Compound 28] | 14.5 ± 1.13 µM | – | –
29 | O=C(N/N=C/c1cn(-c2cc(Cl)cc(Cl)c2)nn1)c1ccncc1 [Compound 29, (E)-N′-((1-(3,5-dichlorophenyl)-1H-1,2,3-triazol-4-yl)methylene)isonicotinohydrazide] | < 10 µM | 6.96 ± 1.44 µM | survival of HEK293 cells (MTT) (HEK293 cells): above 80%; toxicity in HEK 293 cells (MTT) (HEK293 cells): no toxicity; IC50 ([1]; Plasmodium falciparum): 9.91 ± 2.94 µM
30 | COc1ccc(-n2cc(/C=N/NC(=O)c3ccncc3)nn2)cc1 [Compound 30] | 23.2 ± 1.94 µM | – | –
31 | O=C(N/N=C/c1cnn(-c2ccccc2)n1)c1ccncc1 [Compound 31] | 20.2 ± 0.79 µM | – | –
32 | COc1ccc(-n2cc(/C=N/Nc3cc(C)ccc3C)nn2)cc1 [Compound 54, (E)-4-((2-(2,5-dimethylphenyl)hydrazono)methyl)-1-(4-methoxyphenyl)-1H-1,2,3-triazole] | – | – | solubilization [2]: weren’t able to be solubilized
33 | (E)-1-(3,5-dichlorophenyl)-4-((2-(2,5-dimethylphenyl)hydrazono)methyl)-1H-1,2,3-triazole [Compound 22] | – | 5.56 ± 0.47 µM | survival of HEK293 cells (MTT) (HEK293 cells): above 80%; toxicity in HEK 293 cells (MTT) (HEK293 cells): no toxicity; IC50 ([1]; PfSR25- knockout strain, ± standard error of the mean, read-out: IC50): 4.41 ± 0.6 µM; IC50 for the knockout strain compared with the 3D7 strain [1]: lower IC50 values for the knockout strain
